Reference: patent US6495065B1, “Nitrosamine-inhibiting compositions for shortstopping of free radical emulsion polymerizations” (Atofina Chemicals, Inc., priority 1999, dated 2002)

Test: Solubility in water

SMILES | Solubility in water [wt. %]
CCN(O)CC [DEHA, diethylhydroxylamine] | ~85
CC(C)NO [NiPHA, N-isopropylhydroxylamine] | ~15
